In assay [1] the test system is rat myocardial infarct model. It counts as in vivo.
For assay [2], the target named is norepinephrine transporter (Rattus norvegicus, UniProt Q63380). Format: cell-based.
Where [3] appears, read: animal group that received labetalol.

“And” between values parts separate entries of the source, which are not always exact repeats. Equal values may be shown once. Read-outs that look alike come from different tables or passages of the source.

norepinephrine transporter, sequence (Q63380 1-617): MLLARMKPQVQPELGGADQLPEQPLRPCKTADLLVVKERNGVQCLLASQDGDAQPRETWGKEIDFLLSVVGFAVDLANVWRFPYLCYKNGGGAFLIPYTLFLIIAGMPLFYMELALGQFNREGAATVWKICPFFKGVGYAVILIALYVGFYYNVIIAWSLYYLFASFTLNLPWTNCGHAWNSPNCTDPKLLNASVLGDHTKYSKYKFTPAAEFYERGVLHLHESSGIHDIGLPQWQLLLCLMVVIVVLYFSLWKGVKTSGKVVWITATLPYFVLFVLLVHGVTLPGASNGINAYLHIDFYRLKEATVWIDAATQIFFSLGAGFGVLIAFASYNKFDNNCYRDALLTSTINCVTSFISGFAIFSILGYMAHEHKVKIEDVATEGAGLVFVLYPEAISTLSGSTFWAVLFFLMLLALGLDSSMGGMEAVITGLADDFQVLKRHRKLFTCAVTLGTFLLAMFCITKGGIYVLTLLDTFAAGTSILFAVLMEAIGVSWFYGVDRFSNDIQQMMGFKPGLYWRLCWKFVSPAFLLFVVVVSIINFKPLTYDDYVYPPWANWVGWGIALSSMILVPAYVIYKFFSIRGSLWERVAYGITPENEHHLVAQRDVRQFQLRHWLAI

For `CC(CCc1ccccc1)NCC(O)c1ccc(O)c(C(N)=O)c1` (stereo not shown) [Labetalol, labetalol], the “Infarct Size” value in assay [1] (N = 6, DPDPE 200 ng/kg iv 30 min before occlusion, labetalol 2 mg/kg iv) is given as 16.2 ± 1.7 % of LV. In assay [1] (setting [3]), the “change in heart rate” value is “mild increase” and the “change in mean blood pressure compared to the other groups” value was “small reduction”. For the same compound, in assay [1] (rat, in vivo), the HR is 213 ± 1 bpm and 223 ± 1 bpm and 244 ± 2 bpm and 235 ± 2 bpm; the “Mean BP” value was 125 ± 2 mmHg and 100 ± 2 mmHg and 78 ± 4 mmHg and 81 ± 4 mmHg.
For the compound [D-Pen^25]-enkephalin [DPDPE], in assay [1] (rat, in vivo), the HR was 215 ± 1 bpm and 218 ± 1 bpm and 232 ± 1 bpm and 216 ± 1 bpm; the “Infarct Size” value is reported as 6.6 ± 1.4 % of LV; the “Mean BP” value is 125 ± 1 mmHg and 116 ± 1 mmHg and 89 ± 2 mmHg and 96 ± 1 mmHg; the “infarct-size-limiting effect in rats pretreated with labetalol” value was “nearly abolished”. Also, the “reduction of LV infarct size compared to control” value in assay [1] (rat, in vivo, iv) worked out at 53%.
For `CNCCC(Oc1ccccc1OC)c1ccccc1` (stereo not shown) [nisoxetine], the “reduction of [3H]norepinephrine uptake” value in assay [2] amounted to 36±4%.
As to `NC[C@H](O)c1ccc(O)c(O)c1` [norepinephrine], in assay [2], the “inhibition of [3H] norepinephrine uptake” value came to 20% and the “reduction of [3H]norepinephrine uptake” value is 20±5%.

(Values after US20110112032A1, “Regulation of Brain Natriuretic Peptide and Catecholamines for the Treatment of Cardiovascular Diseases” (priority 2005, published 2011).)
